Values quoted from earlier work in article PMC3124134 (Bioorganic & medicinal chemistry, 2010).

Assays:
Sc ODCase = conditions: S. cerevisiae ODCase; in words
ODCase = conditions: read-out: inhibition constant (Ki); competitive inhibition of ODCase

Compound | inhibition constants (Sc ODCase) | Ki (ODCase) [µM]
NC(=O)c1[nH]nc([C@@H]2O[C@H](COP(=O)(O)O)[C@@H](O)[C@H]2O)c1O [compound 8, 4-Hydroxy-5-(5-O-monophosphoryl-β-D-ribofuranos-1-yl)-1H-pyrazole-3-carboxamide] | low nanomolar range | 
COC(=O)C1=C(C)NC(C)=C(C(=O)OC)C1c1ccccc1[N+](=O)[O-] [nifedipine] |  | 105
